This note sets out measurements from patent publication US20230373934A1, “ANDROGEN RECEPTOR MODULATORS AND METHODS FOR THEIR USE” (ESSA Pharma, Inc., priority 2022, published 2023).

In the assay the target is T1, androgen receptor (AR) (Homo sapiens, UniProt P10275, T878A).
T1 construct: endogenous in cells; host or cells: LNCaP
T1 sequence (P10275 1-920 T878A): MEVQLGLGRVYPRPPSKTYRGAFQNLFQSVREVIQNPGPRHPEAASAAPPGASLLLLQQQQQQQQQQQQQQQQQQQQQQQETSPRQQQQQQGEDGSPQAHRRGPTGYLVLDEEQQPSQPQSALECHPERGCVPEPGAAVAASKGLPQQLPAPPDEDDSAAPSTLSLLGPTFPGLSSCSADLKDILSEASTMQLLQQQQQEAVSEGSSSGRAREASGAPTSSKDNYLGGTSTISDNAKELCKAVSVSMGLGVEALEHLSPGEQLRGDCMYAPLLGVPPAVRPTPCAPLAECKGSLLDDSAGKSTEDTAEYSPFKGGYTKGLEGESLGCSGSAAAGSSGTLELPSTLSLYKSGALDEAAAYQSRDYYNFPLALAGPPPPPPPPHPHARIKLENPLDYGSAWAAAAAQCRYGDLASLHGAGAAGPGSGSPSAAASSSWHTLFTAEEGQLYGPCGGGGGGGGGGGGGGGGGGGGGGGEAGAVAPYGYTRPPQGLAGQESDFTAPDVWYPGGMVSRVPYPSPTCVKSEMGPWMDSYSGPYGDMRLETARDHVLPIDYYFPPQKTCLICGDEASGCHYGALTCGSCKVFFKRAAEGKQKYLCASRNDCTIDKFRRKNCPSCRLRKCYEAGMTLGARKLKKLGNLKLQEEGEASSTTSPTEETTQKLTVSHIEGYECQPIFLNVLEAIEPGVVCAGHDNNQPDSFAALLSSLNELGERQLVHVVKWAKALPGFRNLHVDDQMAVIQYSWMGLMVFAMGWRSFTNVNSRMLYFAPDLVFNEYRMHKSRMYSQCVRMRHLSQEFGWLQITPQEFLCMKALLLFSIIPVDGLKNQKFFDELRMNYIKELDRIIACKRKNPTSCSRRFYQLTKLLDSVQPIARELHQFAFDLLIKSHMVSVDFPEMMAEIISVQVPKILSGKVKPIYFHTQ
The assay is described as follows: Androgen-induced PSA-luciferase assay, Luciferase Assay A (LNCaP transiently transfected with PSA (6.1 kb)-luciferase reporter). It is filed as cell-based. Particulars: LNCaP cells, 1 h pretreatment, R1881 (1 nM) 24 h, read-out: PSA-Luc IC50 Range. On the procedure:
The PSA (6.1 kb)-luciferase reporter contains functional AREs (androgen response elements) to which AR binds in response to androgen to induce luciferase activity. LNCaP cells were transiently transfected with the PSA (6.1 kb)-luciferase reporter for 24 h, and then pretreated with vehicle (DMSO) or indicated concentration of representative compounds for one hour prior to the addition of synthetic androgen, R1881 (1 nM). After 24 h of incubation with R1881, the cells were harvested, and relative luciferase activities were determined (FIG. 1). To determine the IC50, treatments were normalized to vehicle control activity induced by R1881 (Table 2).
Luciferase Assay A: Cells were lysed using Passive Lysis Buffer (Promega) and then collected into V-bottom 96-well tissue culture plates. Lysates were centrifuged at 4° C. for 5 minutes at 3000 rpm. To measure luminescence of LNCaP cell lysates the Firefly Luciferase Assay System (Promega) was employed, according to manufacturer's protocol. Relative luminescence units (RLU) in cell lysates were detected for 10 seconds using Promega GloMax-Multi Detection Luminometer (Promega). Values were normalized to protein content. GraphPad Prism graphing software was used to calculate IC50 values. Luciferase Assay A was run for all compounds in Table 2 unless otherwise noted below.
Statistical analyses were performed using GraphPad Prism (Version 6.01 for Windows; La Jolla, CA, USA). Comparisons between treatment and control groups were compared using Two-Way ANOVA with post-hoc Dunnett's and Tukey's tests. Differences were considered statistically significant at P values less than 0.05.
In the case of `CC(C)(c1ccc(OCC23CC(NS(C)(=O)=O)(C2)C3)cc1)c1cc(Cl)c(N2CCOCC2)c(C#N)c1` [Compound A142], the IC50 (commonly the point on the concentration scale where inhibition reaches its midpoint) lay in the range of 500 to 2000 nM.
The figure for `CC(C)(c1ccc(-c2ccc(N3CC(NS(C)(=O)=O)C3)nn2)cc1)c1cc(Cl)c(OCCCl)c(C#N)c1` [Compound A69] is 500 to 2000 nM.
Consider `COc1c(Cl)cc(N(CC(F)(F)F)c2ccc(-c3ccc4nc(NS(C)(=O)=O)cnc4c3)cc2)cc1C#N` [Compound A67], for which the IC50 was in the range of 500 to 2000 nM.
On to `CC(C)(c1ccc(CCN2CC(NS(C)(=O)=O)C2)cc1)c1cc(Cl)c(OCCCl)c(C#N)c1` [Compound A20], for which the 50% inhibitory concentration (IC50) was over 2000 nM.
In the case of `CC(C)(c1ccc(OC2CC3(C2)CN(S(C)(=O)=O)C3)cc1)c1cc(Cl)c(OC2CC2)c(C#N)c1` [Compound A141], the IC50 fell in the range of 500 to 2000 nM.
In the case of `CS(=O)(=O)Nc1cnc2cc(-c3ccc(Oc4cc(Cl)c(OCCCl)c(C#N)c4)cc3)cnc2n1` [Compound A49], the IC50 lay in the range of 500 to 2000 nM.
Regarding `CS(=O)(=O)Nc1cnc2cc(C3CCN(Cc4cc(Cl)c(OCCCl)c(C#N)c4)CC3)ccc2n1` [Compound A93], the IC50 was over 2000 nM.
As for `CS(=O)(=O)NC12CC(n3cc(-c4ccc(Oc5cc(Cl)c(OCCCl)c(C#N)c5)cc4)cn3)(C1)C2` [Compound A99], the concentration for half-maximal inhibition (IC50) was 500 to 2000 nM.
Regarding `CC(C)(c1ccc(-c2ccc(CCNS(C)(=O)=O)nc2)cc1)c1cc(Cl)c(OCCCl)c(C#N)c1` [Compound A6], the IC50 is under 500 nM.
For the compound `CC(C)(c1ccc(-c2ccc(N3CCC(NS(C)(=O)=O)C3)nc2)cc1)c1cc(Cl)c(OCCCl)c(C#N)c1` (centres unmarked) [Compound A54], the IC50 is under 500 nM.
Consider `CS(=O)(=O)Nc1cnc2cc(-c3ccc(Oc4cc(F)c(OC5CC5)c(C#N)c4)cc3)ccc2n1` [Compound A154], for which the IC50 lay within 500 to 2000 nM.
Next, `CC(C)(c1ccc(O[C@H]2CC[C@H](NS(C)(=O)=O)CC2)cc1)c1cc(Cl)c(OCCCl)c(C#N)c1` [Compound A33]: over 2000 nM; `CS(=O)(=O)Nc1cnc2cc(-c3ccc(Oc4cc(F)c(OCCCl)c(C#N)c4)cc3)ccc2n1` [Compound A155]: 500 to 2000 nM; `CC(C)(c1ccc(-c2cnc(CNS(C)(=O)=O)nc2)cc1)c1cc(Cl)c(OCCCl)c(C#N)c1` [Compound A4]: 500 to 2000 nM.
The figure for `CC(C)(c1ccc(OCc2ccnc(NS(C)(=O)=O)n2)cc1)c1cc(Cl)c(OC2CC2)c(C#N)c1` [Compound A62] is 500 to 2000 nM.
For `CC(C)(c1ccc(OCc2ccnc(NS(C)(=O)=O)n2)cc1)c1cc(Cl)c(N2CCC(F)CC2)c(C#N)c1` [Compound A153], the IC50 was over 2000 nM.
Next, `CC(C)(c1ccc(OCc2cc(C3CCNCC3)nc(NS(C)(=O)=O)n2)cc1)c1cc(Cl)c(OCCCl)c(C#N)c1` [Compound A114]: over 2000 nM; `CC(C)(c1ccc(OCc2ccnc(NS(C)(=O)=O)n2)cc1)c1cc(Cl)c(OCCNS(C)(=O)=O)c(C#N)c1` [Compound A183]: over 2000 nM; `CC(C)(c1ccc(OCc2ccnc(NS(C)(=O)=O)n2)cc1)c1cc(Cl)c(CN2CC(F)(F)C2)c(Cl)c1` [Compound A166]: 500 to 2000 nM.
Next, `CC(C)(c1ccc(OCc2ccnc(NS(C)(=O)=O)n2)cc1)c1cc(Cl)c(N2CCOC3(CC3)C2)c(C#N)c1` [Compound A148]: 500 to 2000 nM; `Cn1cnc(S(=O)(=O)Nc2nccc(COc3ccc(C(C)(C)c4cc(Cl)c(OCCCl)c(C#N)c4)cc3)n2)c1` [Compound A107]: over 2000 nM; `CC(C)(c1ccc(OCc2ccnc(NS(=O)(=O)c3cccnc3)n2)cc1)c1cc(Cl)c(OCCCl)c(C#N)c1` [Compound A109]: over 2000 nM.
On to `CC(C)(c1ccc(OCc2ccnc(NS(C)(=O)=O)n2)cc1)c1cnc(OCCCl)c(C#N)c1` [Compound A170], for which the IC50 is over 2000 nM.
Take `CC(C)(c1ccc(OCc2ccnc(NS(C)(=O)=O)n2)cc1)c1cc(Cl)c(OCC2CC2)c(C#N)c1` [Compound A147]: the half-inhibitory concentration (IC50) lay within 500 to 2000 nM.
For `CC(C)(c1ccc(OCc2ccnc(NS(=O)(=O)c3ccoc3)n2)cc1)c1cc(Cl)c(OCCCl)c(C#N)c1` [Compound A103], the 50% inhibitory concentration (IC50) was in the range of 500 to 2000 nM.
For `CS(=O)(=O)NC1CCN(Cc2ccc(Oc3cc(Cl)c(OCCCl)c(C#N)c3)cc2)CC1` [Compound A9], the IC50 was over 2000 nM.
Next, `CS(=O)(=O)NCC1CN(c2ncc(-c3ccc(Oc4cc(Cl)c(OCCCl)c(C#N)c4)cc3)cn2)C1` [Compound A96]: under 500 nM; `CC(C)(c1ccc(OCc2cccc(NS(C)(=O)=O)c2F)cc1)c1cc(Cl)c(OCCCl)c(C#N)c1` [Compound A130]: 500 to 2000 nM.
The figure for `CC(C)(c1ccc(N2CCN(C3CC(NS(C)(=O)=O)C3)CC2)cc1)c1cc(Cl)c(OCCCl)c(C#N)c1` (centres unmarked) [Compound A48] is over 2000 nM.
Next, `CC(C)(c1ccc(-c2cncc(N3CC(NS(C)(=O)=O)C3)n2)cc1)c1cc(Cl)c(OCCCl)c(C#N)c1` [Compound A41]: over 2000 nM; `CC(C)(c1ccc(CN2CC(NS(C)(=O)=O)CC(F)(F)C2)cc1)c1cc(Cl)c(OCCCl)c(C#N)c1` (centres unmarked) [Compound A46]: over 2000 nM.
Take `CC(C)(c1ccc(Oc2cnc(CNS(C)(=O)=O)nc2)cc1)c1cc(Cl)c(OCCCl)c(C#N)c1` [Compound A86]: the IC50 lay within 500 to 2000 nM.
Next, `CC(C)(c1ccc(N2CCC(N3CC(NS(C)(=O)=O)C3)CC2)cc1)c1cc(Cl)c(OCCCl)c(C#N)c1` [Compound A47]: over 2000 nM.
Next, `CC(C)(c1ccc(OCc2ccnc(NS(C)(=O)=O)n2)cc1)c1cc(Cl)c(N2CCN(CC(F)(F)F)CC2)c(C#N)c1` [Compound A134]: 500 to 2000 nM; `CC(C)(c1ccc(Oc2ccnc(N3CC(NS(C)(=O)=O)C3)n2)cc1)c1cc(Cl)c(OCCCl)c(C#N)c1` [Compound A87]: 500 to 2000 nM; `CC(C)(c1ccc(OCc2cc(N3CCNCC3)nc(NS(C)(=O)=O)n2)cc1)c1cc(Cl)c(OCCCl)c(C#N)c1` [Compound A116]: over 2000 nM.
For `CC(C)(c1ccc(OC[C@H]2C[C@H](CNS(C)(=O)=O)C2)cc1)c1cc(Cl)c(OCCCl)c(C#N)c1` [Compound A64], the IC50 fell in the range of 500 to 2000 nM.
Turning to `CS(=O)(=O)NC1CCN(Cc2ccc(Oc3cc(Cl)c(OCCCl)c(C#N)c3)cc2)CC1(F)F` (centres unmarked) [Compound A35], the IC50 is over 2000 nM.
Take `CS(=O)(=O)Nc1nccc(COc2ccc(C(=O)c3cc(Cl)c(OCCCl)c(C#N)c3)cc2)n1` [Compound A128]: the IC50 was over 2000 nM.
On to `CC(C)(c1ccc(OCc2ccnc(NS(C)(=O)=O)n2)cc1)c1cc(Cl)c(OC2CC(F)(F)C2)c(C#N)c1` [Compound A121], for which the IC50 fell in the range of 500 to 2000 nM.
Turning to `C=Cc1c(Cl)cc(C(C)(C)c2ccc(OCc3ccnc(NS(C)(=O)=O)n3)cc2)cc1C#N` [Compound A179], the IC50 lay within 500 to 2000 nM.
Consider `CC(C)(c1ccc(OCc2ccnc(NS(C)(=O)=O)n2)cc1)c1cc(Cl)c(N2CCC3(CC2)CC3)c(C#N)c1` [Compound A133], for which the half-inhibitory concentration (IC50) is over 2000 nM.
The figure for `CC(C)(c1ccc(-c2ccc(N3CCC(NS(C)(=O)=O)CC3)nc2)cc1)c1cc(Cl)c(OCCCl)c(C#N)c1` [Compound A58] is over 2000 nM.
In the case of `CC(C)(C)OC(=O)N1CCN(Cc2cc(C(C)(C)c3cc(Cl)c(OCCCl)c(C#N)c3)ccc2OCc2ccnc(NS(C)(=O)=O)n2)CC1` [Compound A112], the IC50 was 500 to 2000 nM.
Next, `CC(C)(c1ccc(OCc2ccnc(NS(C)(=O)=O)n2)cc1)c1cc(Cl)c(CCCl)c(C#N)c1` [Compound A136]: 500 to 2000 nM; `CC(C)(c1ccc(OCc2ccnc(NS(C)(=O)=O)n2)cc1)c1cc(Cl)c(N2CCC(F)(F)CC2)c(C#N)c1` [Compound A132]: over 2000 nM.
The figure for `CC(C)(c1ccc(OCc2ccnc(NS(C)(=O)=O)n2)cc1)c1cc(Cl)c(OC2CN(CC(F)(F)F)C2)c(C#N)c1` [Compound A165] is over 2000 nM.
